The values below come from patent publication US10280165B2, “Pyridopyrimidinones and methods of use thereof” (Genentech, Inc., priority 2015, dated 2019).

This test concerns the target HEK cells stably transfected with tetracycline inducible hNR1 and hNR2A (Homo sapiens (Human), UniProt Q05586+Q12879). The experiment in a line: Assay 1: Cell-Based Assay (cytosolic calcium, positive allosteric modulation). Particulars: for Emax: HEK293, scaled relative to 100 μM L-glutamate maximal response (100%) and 0 μM L-glutamate (0%), with 30 μM glycine and 300 nM L-glutamate, read-out: Max %; for EC50: with 30 μM glycine and 300 nM L-glutamate (EC30), given for compounds reaching maximal response plateaus. The procedure: Assay 1: Cell-Based Assay
HEK cells stably transfected with tetracycline inducible hNR1 and hNR2A were seeded into clear bottom 384 well poly-D-lysine coated plates (2.5×10^4 cells per well) in Minimum Essential Media (MEM; without L-) including 7.5 μg mL doxycycline and 500 μM (+)-ketamine. The cells were incubated at 37° C. in 5% CO2 for 24 h. For measurement of changes in cytosolic calcium, the seeding media was removed and the cells incubated at 37° C. for 60 min with 1× Becton Dickinson Calcium Assay Kit reagent in Hanks Balanced Salt Solution (HBSS; w/o magnesium, including 1.8 mM calcium, 0.65 mg ml^−1 probenecid and 10 μM (+)-ketamine, pH 7.15) then allowed to equilibrate to rt for 30 min. Concentration-effect curves to Positive Allosteric Modulators (PAMs) were constructed by adding different concentrations (with 30 μM glycine and 300 nM L-glutamate (EC30)) to different wells in HBSS. Compounds were added after a 10 second baseline read and maximum level of relative fluorescence units (RFU) was measured over a 5 min period. Responses were scaled relative to 100 μM L-glutamate maximal response (100%) and 0 μM L-glutamate (0%). EC50 values are provided for compounds reaching maximal response plateaus, and the max % (EC50 (--)) only if no plateau was reached.
A four-parameter Hill equation was fitted to individual concentration-effect curves:
[formula] in which Y, S0, Sinf, AC50, n and c were effect, lower-asymptote, upper-asymptote, mid-point location, slope parameter, and concentration respectively.

Sequence of HEK cells stably transfected with tetracycline inducible hNR1 and hNR2A (Q12879 23-1464, other chains not shown): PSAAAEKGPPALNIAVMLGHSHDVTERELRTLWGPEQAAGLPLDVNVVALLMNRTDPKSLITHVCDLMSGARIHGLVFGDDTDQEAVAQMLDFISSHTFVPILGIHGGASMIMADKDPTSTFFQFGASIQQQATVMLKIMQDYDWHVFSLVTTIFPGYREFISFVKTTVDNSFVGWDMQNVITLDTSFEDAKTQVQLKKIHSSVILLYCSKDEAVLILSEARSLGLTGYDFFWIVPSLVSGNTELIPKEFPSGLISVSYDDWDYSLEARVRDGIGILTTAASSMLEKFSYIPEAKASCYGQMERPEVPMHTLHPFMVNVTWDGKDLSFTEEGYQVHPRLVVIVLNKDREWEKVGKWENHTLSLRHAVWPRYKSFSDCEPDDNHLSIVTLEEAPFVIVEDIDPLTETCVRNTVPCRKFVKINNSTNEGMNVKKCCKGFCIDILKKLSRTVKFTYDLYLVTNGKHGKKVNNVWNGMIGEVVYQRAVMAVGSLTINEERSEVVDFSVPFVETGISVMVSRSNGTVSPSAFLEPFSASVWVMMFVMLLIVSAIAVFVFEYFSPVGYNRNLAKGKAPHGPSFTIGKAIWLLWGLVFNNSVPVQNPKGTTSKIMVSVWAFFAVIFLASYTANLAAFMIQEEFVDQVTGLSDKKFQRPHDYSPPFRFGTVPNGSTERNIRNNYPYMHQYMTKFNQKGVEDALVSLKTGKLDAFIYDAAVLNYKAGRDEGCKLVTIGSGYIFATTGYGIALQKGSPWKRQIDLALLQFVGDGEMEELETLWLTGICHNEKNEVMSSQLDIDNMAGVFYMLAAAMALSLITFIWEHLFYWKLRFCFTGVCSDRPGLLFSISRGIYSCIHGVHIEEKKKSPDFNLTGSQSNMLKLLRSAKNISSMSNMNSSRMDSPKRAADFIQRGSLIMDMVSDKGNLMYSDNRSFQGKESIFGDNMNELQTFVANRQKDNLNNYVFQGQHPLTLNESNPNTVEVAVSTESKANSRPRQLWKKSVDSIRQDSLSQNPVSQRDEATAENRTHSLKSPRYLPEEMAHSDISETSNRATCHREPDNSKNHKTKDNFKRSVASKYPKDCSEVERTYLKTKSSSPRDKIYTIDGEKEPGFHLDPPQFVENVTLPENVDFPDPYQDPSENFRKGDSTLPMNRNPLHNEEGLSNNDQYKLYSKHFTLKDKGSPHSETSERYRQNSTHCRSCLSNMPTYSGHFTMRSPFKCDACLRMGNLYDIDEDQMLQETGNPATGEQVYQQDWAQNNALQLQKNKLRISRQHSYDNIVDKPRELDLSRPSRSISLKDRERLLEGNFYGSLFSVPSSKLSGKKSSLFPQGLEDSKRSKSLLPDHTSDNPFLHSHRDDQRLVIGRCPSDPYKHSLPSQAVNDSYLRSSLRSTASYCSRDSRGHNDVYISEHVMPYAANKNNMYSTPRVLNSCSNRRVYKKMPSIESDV

As for `O=c1cc(Cn2nc(C(F)(F)F)cc2Cl)nc2ccccn12` [Compound 48, 2-[[5-chloro-3-(trifluoromethyl)pyrazol-1-yl]methyl]pyrido[1,2-a]pyrimidin-4-one], the Emax was 73% and the EC50 – broadly, the midpoint of the concentration-response curve – is 32.4 µM.
Consider `N#CC1CC1c1c(F)ccc2nc(Cn3nc(Cl)cc3C(F)(F)F)cc(=O)n12` (stereo not shown) [Compound 47, 2-[2-[[3-chloro-5-(trifluoromethyl)pyrazol-1-yl]methyl]-7-fluoro-4-oxo-pyrido[1,2-a]pyrimidin-6-yl]cyclopropanecarbonitrile], for which the Emax turned out to be 200% and the EC50 came out at 0.178 µM.
As for `CCNC(=O)c1c(C)ccc2nc(Cn3ccc(C(F)(F)F)n3)cc(=O)n12` [Compound 28, N-ethyl-7-methyl-4-oxo-2-[[3-(trifluoromethyl)pyrazol-1-yl)methyl]pyrido[1,2-a]pyrimidine-6-carboxamide], the Emax came out at 60%.
As to `CCOc1cccc2nc(CN(CC)c3ccc(F)cc3)cc(=O)n12` [Compound 9, 6-ethoxy-2-[(N-ethyl-4-fluoro-anilino)methyl]pyrido[1,2-a]pyrimidin-4-one], the Emax amounted to 120% and the EC50 was 5 µM.
